Measured values taken from patent publication US11001590B2, “Pyrazolopyrimidine derivatives” (BAYER ANIMAL HEALTH GMBH, priority 2016, dated 2021).

Tests used:
[1] = tested on: Nippostrongylus brasiliensis; assay: In vitro assay 2: Nippostrongylus brasiliensis (NIPOBR), acetylcholine esterase readout; details: adult worms, 10 μg/ml (10 ppm), read-out: activity (reduction of AChE compared to negative control)
Description: In Vitro Assay 2: Nippostronqylus Brasiliensis (NIPOBR)
Adult Nippostrongylus brasiliensis were washed with saline buffer containing 100 U/ml penicillin, 0.1 mg/ml streptomycin and 2.5 μg/ml amphotericin B. Test compounds were dissolved in DMSO and worms were incubated in medium in a final concentration of 10 μg/ml (10 ppm) respectively 1 μg/ml (1 ppm). An aliquot of the medium was used to determine the acetylcholine esterase activity in comparison to a negative control. The principle of measuring acetylcholine esterase as readout for anthelmintic activity was described in Rapson et al (1986) and Rapson et al (1987).

[2] = tested on: Dirofilaria immitis microfilariae; assay: In vitro assay 3: Dirofilaria immitis microfilariae (DIROIM L1), motility; details: 72 h, reduction of motility vs negative control, 72 h incubation
C. elegans Slo-1a = C. elegans Slo-1a (Caenorhabditis elegans, UniProt Q95V25); assay: In vitro assay 1: C. elegans Slo-1a, action at a recombinant C. elegans CHO cell line (membrane potential measurement)
Description: In Vitro Assay 1: C. Eleqans Slo-La—Action at a Recombinant C. elegans Cell Line
Cells were cultured at 37° C. and 5% CO2 in MEMalpha with Gutamax I (Invitrogen, Nr.: 32571), supplemented with 10% (v/v) heat inactivated fetal bovine serum (Invitrogen, Nr.: 10500), G418 (1 mg/ml, Invitrogen, Nr.: 10131). Cells were detached using Accutase (Sigma, Nr.: A6964).
Membrane Potential Measurements
Laboratory compound testing was performed on 384-well microtiter plates (MTPs, Greiner, Nr.: 781092). 8000 cells/well were plated onto 384-well MTPs and cultured for 20 to 24 hours at 37° C. and 5% CO2. After removal of the cell culture medium, the cells were washed once with tyrode (150 mM NaCl, 0.3 mM KCl, 2 mM CaCl2, 1 mM MgCl2, 0.8 mM NaH2PO4, 5 mM Glucose, 28 mM Hepes, pH 7.4) and then loaded with the voltage sensitive dye of the Membrane Potential Assay Kit diluted in tyrode for 1 h at room temperature.
After starting the measurement of fluorescence using a FLIPR Tetra (Molecular Devices, Exc. 510-545 nm, Emm. 565-625 nm), test compounds were added followed by the addition of KCl tyrode (final assay concentration: 70 mM KCl, 2 mM CaCl2, 1 mM MgCl2, 0.8 mM NaH2PO4, 5 mM Glucose, 28 mM Hepes, pH 7.4, including the voltage sensitive dye). The measurement was completed after 7 minutes.

[3] = log P by HPLC on reversed phase columns (Method L0; [a] acidic, [b] neutral range)
Description: Calibration was done with straight-chain alkan-2-ones (with 3 to 16 carbon atoms) with known log P values (measurement of log P values using retention times with linear interpolation between successive alkanones). Lambda-max-values were determined using UV-spectra from 200 nm to 400 nm and the peak values of the chromatographic signals.

[4] = tested on: Dirofilaria immitis third-stage larvae; assay: In vitro assay 4: Dirofilaria immitis (DIROIM L4), motility of larvae; details: 72 h
[5] = tested on: Litomosoides sigmodontis third-stage larvae; assay: In vitro assay 7: Litomosoides sigmodontis L3 (LTMOSI), motility; details: 72 h, reduction of motility vs negative control, 72 h incubation

Sequence of C. elegans Slo-1a (Q95V25 whole entry): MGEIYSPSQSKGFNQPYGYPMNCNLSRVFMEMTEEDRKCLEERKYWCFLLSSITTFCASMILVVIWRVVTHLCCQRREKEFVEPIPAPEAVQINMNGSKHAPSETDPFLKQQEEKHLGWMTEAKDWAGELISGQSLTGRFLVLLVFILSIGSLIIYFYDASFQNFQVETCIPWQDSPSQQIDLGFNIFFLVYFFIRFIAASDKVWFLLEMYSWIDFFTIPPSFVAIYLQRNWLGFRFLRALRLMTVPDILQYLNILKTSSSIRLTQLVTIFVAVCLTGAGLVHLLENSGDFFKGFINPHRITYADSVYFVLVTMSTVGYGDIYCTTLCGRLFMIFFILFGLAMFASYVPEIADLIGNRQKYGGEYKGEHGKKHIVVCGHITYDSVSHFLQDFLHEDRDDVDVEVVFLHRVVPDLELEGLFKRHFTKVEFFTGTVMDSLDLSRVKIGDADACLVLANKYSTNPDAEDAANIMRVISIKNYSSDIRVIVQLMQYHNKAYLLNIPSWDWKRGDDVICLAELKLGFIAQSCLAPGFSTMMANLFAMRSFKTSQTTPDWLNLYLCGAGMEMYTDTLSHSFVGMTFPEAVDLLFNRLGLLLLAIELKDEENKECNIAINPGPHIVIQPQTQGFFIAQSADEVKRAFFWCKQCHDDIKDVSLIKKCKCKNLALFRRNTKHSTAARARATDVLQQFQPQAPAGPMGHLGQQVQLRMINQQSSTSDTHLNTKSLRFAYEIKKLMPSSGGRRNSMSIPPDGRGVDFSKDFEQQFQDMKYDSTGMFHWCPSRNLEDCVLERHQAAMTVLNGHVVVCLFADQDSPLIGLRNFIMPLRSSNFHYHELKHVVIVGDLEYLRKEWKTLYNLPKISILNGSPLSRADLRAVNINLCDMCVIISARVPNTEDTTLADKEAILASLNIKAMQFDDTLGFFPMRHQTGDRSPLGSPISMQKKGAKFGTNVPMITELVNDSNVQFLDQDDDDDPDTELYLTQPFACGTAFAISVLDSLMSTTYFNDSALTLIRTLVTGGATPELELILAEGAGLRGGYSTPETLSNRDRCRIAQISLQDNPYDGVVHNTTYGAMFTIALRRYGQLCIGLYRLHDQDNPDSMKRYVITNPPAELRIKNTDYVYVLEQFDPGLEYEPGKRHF

| SMILES | inhibition at 10 µg/mL [1] [%] | EC50 [2] [µg/mL] | EC50 (C. elegans Slo-1a) [nM] | chromatographic logP [3] | EC50 [4] [µg/mL] | EC50 [5] [µg/mL] |
| --- | --- | --- | --- | --- | --- | --- |
| Cc1nn2c(C(C)C)c(C(=O)N[C@H]3CCOc4ccccc43)cnc2c1-c1cccc(OC(C)C)c1F [Example 188] | > 80 | < 1 | 12.6 | 4.79 | – | – |
| Cc1nn2c(C(C)C)c(C(=O)N[C@H]3CCOc4ccccc43)cnc2c1-c1ccc(Br)cc1 [Example 206] | > 80 | < 1 | 12.6 | 5.02 | – | – |
| Cc1nn2c(C(C)C)c(C(=O)N[C@H]3CCOc4ccccc43)cnc2c1-c1cccc(N2CC(F)(F)C2)c1 [Example 440] | > 80 | < 1 | 12.6 | 4.64 | – | – |
| COCc1cccc(-c2c(C)nn3c(C(C)C)c(C(=O)N[C@H]4CCOc5ccccc54)cnc23)c1 [Example 392] | > 80 | < 0.1 | 10 | 4.16 | – | – |
| Cc1nn2c(C3CC3)c(C(=O)N[C@H]3CCc4ccccc43)cnc2c1-c1c(F)cc(F)cc1F [Example 438] | – | < 0.1 | 1.26 | 3.87 | < 0.1 | < 0.1 |
| CC(C)c1c(C(=O)N[C@H]2CCc3ccccc32)cnc2c(-c3ccccc3Cl)c(Cl)nn12 [Example 79] | – | < 0.1 | 20 | 4.79 | < 0.1 | < 0.1 |
| Cc1nn2c(C3CC3)c(C(=O)N[C@H]3CCc4ccccc43)cnc2c1-c1ccccc1Cl [Example 349] | – | < 0.1 | 2.51 | 3.88 | < 0.1 | < 0.1 |
| COc1cccc(-c2c(C)nn3c(C4CC4)c(C(=O)N[C@H]4CCc5ccccc54)cnc23)c1 [Example 351] | – | < 0.1 | 3.98 | 3.74 | < 0.1 | < 0.1 |
| Cc1ccccc1-c1c(C)nn2c(C(C)C)c(C(=O)N[C@H]3CCOc4ccccc43)cnc12 [Example 193] | – | < 0.1 | 0.794 | 4.44 | < 0.1 | < 0.1 |
| Cc1nn2c(C(C)C)c(C(=O)N[C@H]3CCOc4ccccc43)cnc2c1-c1cccc(F)c1Cl [Example 191] | – | < 0.1 | 1.26 | 4.46 | < 0.1 | < 0.1 |
| Cc1nn2c(C(C)C)c(C(=O)N[C@H]3CCOc4ccccc43)cnc2c1-c1c(Cl)cccc1Cl [Example 154] | – | < 0.1 | 6.31 | 4.56 | < 0.1 | < 0.1 |
| COc1cc(F)cc(-c2c(C)nn3c(C(C)C)c(C(=O)N[C@H]4CCc5ccccc54)cnc23)c1 [Example 325] | – | < 0.1 | 20 | 4.8 | < 0.1 | < 0.1 |
| Cc1nn2c(N3CCOCC3)c(C(=O)N[C@H]3CCOc4ccccc43)cnc2c1-c1c(F)ccc(F)c1F [Example 535] | – | < 0.1 | 2.51 | 3.29 | < 0.1 | < 0.1 |
| Cc1nn2c(C(C)C)c(C(=O)N[C@H]3CCOc4ccccc43)cnc2c1-c1cc(Cl)ccc1Cl [Example 173] | – | < 0.1 | 3.98 | 5 | < 0.1 | < 0.1 |
| Cc1nn2c(C(C)C)c(C(=O)N[C@H]3CCCc4ccccc43)cnc2c1-c1cccc(Cl)c1Cl [Example 169] | – | < 0.1 | 6.31 | 5.46 | < 0.1 | < 0.1 |
| Cc1nn2c(C(C)C)c(C(=O)N[C@H]3CCc4ccccc43)cnc2c1-c1c(F)cccc1F [Example 99] | – | < 0.1 | 10 | 4.37 | < 0.1 | < 0.1 |
| Cc1nn2c(C3CC3)c(C(=O)N[C@H]3CCOc4ccccc43)cnc2c1-c1cccc(F)c1F [Example 457] | – | < 0.1 | 1.26 | 3.61 | < 0.1 | < 0.1 |
| Cc1nn2c(C3CC3)c(C(=O)N[C@H]3CCc4ccccc43)cnc2c1-c1cccc(Cl)c1 [Example 352] | – | < 0.1 | 6.31 | 4.38 | < 0.1 | < 0.1 |
| CCC(C)c1c(C(=O)N[C@H]2CCOc3ccccc32)cnc2c(-c3c(F)cccc3Cl)c(C)nn12 (some centres unmarked) [Example 226] | – | < 0.1 | 20 | 4.72 | < 0.1 | < 0.1 |
| Cc1nn2c(C(C)C)c(C(=O)N[C@H]3CCc4ccccc43)cnc2c1-c1c(F)cccc1Cl [Example 132] | – | < 0.1 | 6.31 | 4.71 | < 0.1 | < 0.1 |
| Cc1nn2c(C(C)C)c(C(=O)N[C@H]3CCc4ccccc43)cnc2c1-c1cc(F)cc(Cl)c1 [Example 324] | – | < 0.1 | 31.6 | 5.49 | < 0.1 | < 0.1 |
| Cc1nn2c(C(C)C)c(C(=O)N[C@H]3CCCc4ccccc43)cnc2c1-c1c(F)cccc1Cl [Example 131] | – | < 0.1 | 7.94 | 5.02 | < 0.1 | < 0.1 |
| Cc1nn2c(C(C)C)c(C(=O)N[C@H]3CCc4ccccc43)cnc2c1-c1ccc(F)cc1 [Example 302] | – | < 0.1 | 12.6 | 4.63 | < 0.1 | < 0.1 |
| COc1cccc(-c2c(C)nn3c(C(C)C)c(C(=O)N[C@H]4CCOc5ccccc54)cnc23)c1 [Example 395] | – | < 0.1 | 7.94 | 4.24 | < 0.1 | < 0.1 |
| Cc1nn2c(C(C)C)c(C(=O)N[C@H]3CCc4ccccc43)cnc2c1-c1cccc(OC(F)F)c1 [Example 337] | – | < 0.1 | 12.6 | 4.7 | < 1 | < 0.1 |
| Cc1nn2c(C(C)C)c(C(=O)N[C@H]3CCCc4ccccc43)cnc2c1-c1cccc(F)c1F [Example 134] | – | < 0.1 | 12.6 | 4.9 | < 0.1 | < 0.1 |
| Cc1nn2c(C3CC3)c(C(=O)N[C@H]3CCOc4ccccc43)cnc2c1-c1ccccc1Cl [Example 452] | – | < 0.1 | 2.51 | 3.64 | < 0.1 | < 0.1 |
| Cc1nn2c(C(C)C)c(C(=O)N[C@H]3CCCc4ccccc43)cnc2c1-c1cccc(Cl)c1 [Example 45] | – | < 0.1 | 50.1 | 5.51 | < 1 | < 0.1 |
| Cc1nn2c(C(C)C)c(C(=O)N[C@H]3CCCc4ccccc43)cnc2c1-c1c(F)cccc1F [Example 98] | – | < 0.1 | 12.6 | 4.67 | < 0.1 | < 0.1 |
| Cc1nn2c(C(C)C)c(C(=O)N[C@H]3CCc4ccccc43)cnc2c1-c1cccc2c1OC(F)(F)O2 [Example 147] | – | < 0.1 | 50.1 | 5.17 | < 0.1 | < 0.1 |
